This is an account of results in patent US20260226034A1 (The Rockefeller University, priority 2023, published 2026).

A value given as a limit tells only on which side of the number the result lay.

One test addresses NSP14 (Severe acute respiratory syndrome coronavirus 2, UniProt P0DTD1). Kind of test: NSP14 MTase inhibition assay at 37° C. (MTase-Glo SAH detection). The format is biochemical, SARS-CoV-2. As to conditions: 0.3 nM NSP14, 2.5 μM SAM, 2.5 μM GpppA RNA, 45 min at 37° C.; read-out: Nsp14 Mtase Inh. IC50.
In the case of `Cc1c(S(=O)(=O)c2ccc(Cl)cc2)cc(C(=O)NCc2cccc3cnn(C)c23)n1C` [A.11], the IC50 worked out at 5.3 nM.
In the case of `Cc1c(S(=O)(=O)c2ccccc2)cc(C(=O)NCc2c(F)ccc3cnn(C4CC4)c23)n1C` [A.10], the half-inhibitory concentration (IC50) came out at 4.9 nM.
On the same count and under the same terms, under `COc1ncc(N2CC[C@@H](NC(=O)c3cc(S(=O)(=O)c4ccc5[nH]ncc5c4)c(C)n3C)C2)cn1` [A.124] stands 0.23 nM.
The same measure, in the same setting: under `Cc1c(S(=O)(=NCC2CC2)c2ccc3[nH]ncc3c2)cc(C(=O)N[C@@H]2CCN(c3ncc(F)cn3)C2)n1C` (stereo partly shown) [A.69] stands 8.7 nM; under `Cc1c(S(=O)(=O)c2ccc3[nH]ncc3c2)cc(C(=O)N[C@@H]2CCN(c3ccn4nccc4c3)C2)n1C` [A.60], 0.28 nM; under `Cc1c(S(=O)(=O)c2ccc3[nH]ncc3c2)cc(C(=O)N[C@@H]2CCN(Cc3ccc(C#N)cn3)C2)n1C` [A.105], 14 nM.
On the same count and under the same terms, under `Cc1c(S(=O)(=O)c2ccc3[nH]ncc3c2)cc(C(=O)N[C@@H]2CCN(c3ccnc(C(F)(F)F)n3)C2)n1C` [A.92] stands below 0.15 nM; under `Cc1c(S(=O)(=O)c2ccc3[nH]ncc3c2)cc(C(=O)N[C@@H]2CCN(c3ccc(C#N)cn3)C2)n1C` [A.72], 0.29 nM.
For `Cc1c(S(=O)(=O)c2ccc3[nH]ncc3c2)cc(C(=O)N[C@@H]2CCN(c3ncc(C#N)cn3)C2)n1C` [A.49], the IC50 was found to be 0.63 nM.
Consider `Cc1c(S(=O)(=O)c2ccc3[nH]ncc3c2)cc(C(=O)N[C@@H]2CCN(c3cnc(F)cn3)C2)n1C` [A.50], for which the 50% inhibitory concentration (IC50) is below 0.15 nM.
Still for that read-out and setting: as for `Cc1c(S(=O)(=O)c2cccc(Cl)c2)cc(C(=O)NCc2cccc3cnn(C)c23)n1C` [A.9], the figure is 2.1 nM; as for `Cc1c(S(=O)(=O)c2ccc3[nH]ncc3c2)cc(C(=O)N[C@@H]2CCN(c3cccc4c3cnn4C)C2)n1C` [A.61], 0.39 nM; as for `COCC1(NC(=O)c2cc(S(=O)(=O)c3ccc4[nH]ncc4c3)c(C)n2C)CCN(c2ncc(F)cn2)C1` (single isomer, unassigned) [A.115, 4-((1H-indazol-5-yl)sulfonyl)-N-(1-(5-fluoropyrimidin-2-yl)-3-(methoxymethyl)pyrrolidin-3-yl)-1,5-dimethyl-1H-pyrrole-2-carboxamide], 37 nM.
Turning to `Cc1c(S(=O)(=O)c2ccc3[nH]nc(F)c3c2)cc(C(=O)N[C@@H]2CCN(c3ncc(F)cn3)C2)n1C` [A.39], the IC50 was below 0.15 nM.
On the same count and under the same terms, under `Cc1c(S(=O)(=O)c2ccc3[nH]ncc3c2)cc(C(=O)N[C@@H]2CCN(c3ccc(C#N)c(C#N)c3)C2)n1C` [A.108] stands below 0.15 nM.
On the same count and under the same terms, as for `Cc1c(S(=O)(=O)c2ccc3[nH]ncc3c2)cc(C(=O)N[C@@H]2CCN(c3cccc(F)c3)C2)n1C` [A.87], the figure is 0.75 nM.
For `Cc1c(S(=O)(=O)c2ccc3[nH]ncc3c2)cc(C(=O)N[C@@H]2CCN(Cc3ccc(F)cn3)C2)n1C` [A.104], the IC50 was found to be 4.3 nM.
Consider `Cc1c(S(=O)(=O)c2ccc(C(C)O)cc2)cc(C(=O)NCc2cccc3cnn(C)c23)n1C` (stereo not shown) [A.32, 4-[4-(1-hydroxyethyl)phenyl]sulfonyl-1,5-dimethyl-N-[(1-methylindazol-7-yl)methyl]pyrrole-2-carboxamide], for which the IC50 is 389 nM.
Same read-out and setting: as for `Cc1c(S(=O)(=O)c2ccc3[nH]ncc3c2)cc(C(=O)N[C@H]2CCN(c3ncc(F)cn3)C2)n1C` [A.47], the figure is 2.2 nM; as for `Cc1c(S(=O)(=O)c2ccc3[nH]ncc3c2)cc(C(=O)N[C@@H]2CCN(c3ccccc3C#N)C2)n1C` [A.83], 0.84 nM.

Still in this test, the particulars now being: 37° C., 0.3 nM NSP14, 2.5 μM SAM, 2.5 μM GpppA RNA; read-out: Nsp14 Mtase Inh. IC50.
On to `Cc1cc(S(=O)(=O)c2cc(C(=O)NCc3c(F)ccnc3N3CCC(C)(C(=O)O)C3)n(C)c2C)cc2cnn(C)c12` (racemic) [B.127], for which the IC50 was 0.58 nM.
Still for that read-out and setting: under `Cc1c(S(=O)(=O)c2ccc3[nH]ncc3c2)cc(C(=O)NCc2c(Cl)cnn2C)n1CC(F)(F)F` [B.185] stands 3.9 nM; under `Cc1c(S(=O)(=O)c2ccc3[nH]ncc3c2)cc(C(=O)NCc2cccc3nnn(C4CC4)c23)n1C` [B.66], below 0.15 nM; under `Cc1c(S(=O)(=O)c2cc(F)c3[nH]ncc3c2)cc(C(=O)N[C@@H](C)c2cccc3cnn(C4CC4)c23)n1C` (single isomer, unassigned) [B.88], 22 nM.
Same read-out and setting: as for `Cc1c(S(=O)(=O)c2cccc(C#N)c2)cc(C(=O)NCc2c(F)ccc3cnn(C)c23)n1C` [B.2], the figure is 0.61 nM; as for `Cc1c(S(=O)(=O)c2ccc3[nH]ncc3c2)cc(C(=O)NCCCOc2ncc(F)cn2)n1C` [B.196], 18 nM; as for `Cc1c(S(=O)(=O)c2ccc3[nH]nc(F)c3c2)cc(C(=O)NCc2c(F)ccc3ncn(C4CC4)c23)n1C` [B.103], below 0.15 nM.
Same read-out and setting: as for `Cc1c(S(=O)(=O)c2ccc3[nH]ncc3c2)cc(C(=O)NCc2cccc3c2N(C)C(=O)C3)n1C` [B.13], the figure is 0.6 nM; as for `Cc1c(S(=O)(=O)c2ccc3[nH]ncc3c2)cc(C(=O)NCc2cccn3ncnc23)n1C` [B.148], 7.4 nM; as for `Cc1ncoc1CNC(=O)c1cc(S(=O)(=O)c2ccc3[nH]ncc3c2)c(C)n1C` [B.150], 14 nM.
`Cc1c(S(=O)(=O)c2ccc3[nH]ncc3c2)cc(C(=O)NCc2cccc3c(F)nn(C4CC4)c23)n1C` [B.35]: the IC50 was found to be 3.3 nM.
On the same count and under the same terms, as for `Cc1c(S(=O)(=O)c2ccc3[nH]ncc3c2)cc(C(=O)NCc2ccn(C(F)F)n2)n1C` [B.160], the figure is 149 nM; as for `Cc1c(S(=O)(=O)c2cc(F)c3[nH]ncc3c2)cc(C(=O)NCc2cccc3cnn(C)c23)n1C` [B.9], 0.53 nM.
Same read-out and setting: under `Cc1cc(CNC(=O)c2cc(S(=O)(=O)c3ccc4[nH]ncc4c3)c(C)n2C)n(C)n1` [B.147] stands 145 nM; under `Cc1c(S(=O)(=O)c2ccc3[nH]ncc3c2)cc(C(=O)N[C@H]2Cc3ccccc32)n1C` (single isomer, unassigned) [B.170], 2.5 nM.
On the same count and under the same terms, as for `Cc1c(S(=O)(=O)c2ccc3[nH]ncc3c2)cc(C(=O)N[C@H](C)c2c(F)cccc2F)n1C` (single isomer, unassigned) [B.64], the figure is 4 nM; as for `Cc1c(S(=O)(=O)c2ccc3[nH]ncc3c2)cc(C(=O)NCc2cccc3ccc(=O)n(C)c23)n1C` [B.11], 2.1 nM.
Turning to `Cc1c(S(=O)(=O)c2ccc3ccc(C#N)cc3c2)cc(C(=O)NCc2c(F)ccc3cnn(C)c23)n1C` [B.128], the IC50 came out at 0.93 nM.
The same measure, in the same setting: under `Cc1c(S(=O)(=O)c2ccc3c(cnn3C)c2)cc(C(=O)NCc2c(F)ccc3cnn(C4CC4)c23)n1CCCC(=O)O` [B.62] stands below 0.15 nM.
Same read-out and setting: as for `Cc1c(S(=O)(=O)c2ccc3[nH]nc(F)c3c2)cc(C(=O)NCc2cccc3c(F)nn(C4CC4)c23)n1C` [B.80], the figure is 1.5 nM; as for `Cc1c(S(=O)(=O)c2ccc3[nH]ncc3c2)cc(C(=O)NCc2ccccc2F)n1C` [B.76], 1.6 nM.
On the same count and under the same terms, as for `Cc1c(S(=O)(=O)c2ccc3[nH]ncc3c2)cc(C(=O)NCc2c(F)ccc3ncn(C4CC4)c23)n1C` [B.18], the figure is below 0.15 nM; as for `Cc1c(S(=O)(=O)c2ccc3c(c2)CC(=O)N3)cc(C(=O)NCc2cccc3cnn(C)c23)n1C` [B.5], 8.7 nM; as for `Cc1c(S(=O)(=O)c2cc(Cl)c3[nH]ncc3c2)cc(C(=O)NCc2c(F)ccc3cnn(C4CC4)c23)n1C` [B.79], 0.17 nM.
With `Cc1c(S(=O)(=O)c2ccc(C(F)(F)F)cc2)cc(C(=O)NCc2cccc3cnn(C)c23)n1C` [B.6], the IC50 worked out at 35 nM.
The same measure, in the same setting: under `Cc1c(S(=O)(=O)c2cc(F)c3[nH]nc(F)c3c2)cc(C(=O)NCc2c(F)ccc3cnn(C4CC4)c23)n1C` [B.99] stands 0.15 nM; under `Cc1c(S(=O)(=O)c2ccc(C3CC3)cc2)cc(C(=O)NCc2cccc3cnn(C)c23)n1C` [B.7], 114 nM; under `Cc1c(S(=O)(=O)c2cnc3[nH]ncc3c2)cc(C(=O)NCc2cccc3cnn(C)c23)n1C` [B.30], 4.6 nM.
Still for that read-out and setting: under `Cc1c(S(=O)(=O)c2ccc3[nH]ncc3c2)cc(C(=O)NCc2c(Cl)cccc2Cl)n1C` [B.84] stands 0.18 nM.
The same measure, in the same setting: as for `Cc1c(S(=O)(=O)c2cc(Cl)c3[nH]ncc3c2)cc(C(=O)NCc2c(F)ccc3nnn(C4CC4)c23)n1C` [B.153], the figure is below 0.15 nM.
Regarding `Cc1c(S(=O)(=O)c2ccc3[nH]ncc3c2)cc(C(=O)NCc2cncnc2N2CCC(F)(F)C2)n1C` [B.40], the IC50 is 0.22 nM.
Same read-out and setting: under `Cc1c(S(=O)(=O)c2ccc3[nH]ncc3c2)cc(C(=O)NCc2cccnc2C(F)(F)F)n1C` [B.53] stands 7 nM.
As for `Cc1c(S(=O)(=O)c2ccc3[nH]ncc3c2)cc(C(=O)NCc2c(F)ccc(OCc3ccc(C(=O)O)cc3)c2F)n1C` [B.123], the IC50 was below 0.15 nM.
In the case of `Cc1c(S(=O)(=O)c2ccc3[nH]ncc3c2)cc(C(=O)NCc2c(F)ccn(C)c2=O)n1C` [B.181], the IC50 turned out to be 0.23 nM.
For `Cc1c(S(=O)(=O)c2ccc3[nH]nc(F)c3c2)cc(C(=O)NCc2c[nH]c(=O)c3cccnc23)n1C` [B.175], the concentration for half-maximal inhibition (IC50) was 3.3 nM.
Same read-out and setting: as for `Cc1c(S(=O)(=O)c2ccc3[nH]ncc3c2)cc(C(=O)NCc2ccn(C3CC3)n2)n1C` [B.168], the figure is 172 nM; as for `Cc1nn(C)cc1CNC(=O)c1cc(S(=O)(=O)c2ccc3[nH]ncc3c2)c(C)n1C` [B.152], 20 nM.
Still for that read-out and setting: under `Cc1c(S(=O)(=O)c2ccc3[nH]ncc3c2)cc(C(=O)NCc2cccc(OCC(F)(F)F)c2)n1C` [B.77] stands 2.9 nM.
The same measure, in the same setting: as for `Cc1c(S(=O)(=O)c2cc(Cl)c3[nH]ncc3c2)cc(C(=O)NCc2c(Cl)cnn2C)n1C` [B.184], the figure is below 0.15 nM; as for `Cc1c(S(=O)(=O)c2ccc3[nH]ncc3c2)cc(C(=O)N[C@H](C)c2c(F)cccc2F)n1C` (single isomer, unassigned) [B.65], 65 nM.
Regarding `Cc1c(S(=O)(=O)c2ccc3[nH]ncc3c2)cc(C(=O)NCc2ccn3nccc3c2)n1C` [B.141], the IC50 turned out to be 16 nM.
For the molecule `Cc1c(S(=O)(=O)c2ccc3[nH]ncc3c2)cc(C(=O)NCc2ccccc2S(C)(=O)=O)n1C` [B.56], the IC50 is 2.9 nM.
On the same count and under the same terms, as for `Cc1c(S(=O)(=O)c2ccc3[nH]ncc3c2)cc(C(=O)NCc2cccc3c2N(C)C(=O)CC3)n1C` [B.15], the figure is 14 nM.
As to `COCc1cc(S(=O)(=O)c2cc(C(=O)NCc3cccc4cnn(C5CC5)c34)n(C)c2C)cc2cn[nH]c12` [B.93], the half-inhibitory concentration (IC50) was 68 nM.
